Results on nine compounds are retold here after PubChem BioAssay (NCI).

Each structure is given as a SMILES string. Several values for one entry are separate records, joined by “and”; a condition that tells them apart may be missing. Equal entries are not always repeated.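 Growth conditions: 96-well plates. Treatment: test compound, 48 hours, 5 concentrations. Analysis: linear interpolation between bracketing concentrations; unreached endpoints set to highest concentration. Abbreviation: GI50, concentration required for 50% inhibition of growth. The concentration for full growth arrest is given as TGI.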

Among the test systems are NCI-H522 lung; HOP-62 NSCLC; SK-MEL-2 melanoma; NCI-H460 lung; KM12 colon; SNB-19 CNS; A549 NSCLC; TK-10 renal; SK-OV-3 ovarian; CAKI-1 renal.
Common to all, as to test: inhibition of tumour cell growth, NCI panel, 48 h

In the case of `COC1=CC(c2ccc[nH]2)=N/C1=C\c1[nH]c(C)c(C(=O)OC(C)C)c1C`, the GI50 in the test with NCI-H522 lung is 44.5 nM; in the test on HOP-62 NSCLC it was 0.123 µM; in the test with SK-MEL-2 melanoma it was 20 nM; with NCI-H460 lung, 26.9 nM; with KM12 colon it was 43.9 nM; in the test with SNB-19 CNS, 0.866 µM. Also, the GI50 in the test on A549 NSCLC was 50.5 nM; with TK-10 renal, 0.0541 µM; in the test on SK-OV-3 ovarian it was 0.831 µM; in the test with CAKI-1 renal, 0.0158 µM. For the same compound, the TGI in the test with NCI-H522 lung stood at 0.637 µM; in the test on HOP-62 NSCLC, 1.84 µM; with SK-MEL-2 melanoma it was 0.0525 µM; in the test on NCI-H460 lung, 1.63 µM; in the test with KM12 colon, 1.8 µM; in the test with SNB-19 CNS it was 34.9 µM. Moreover, the TGI is 1.05 µM with A549 NSCLC, 2.49 µM in the test on TK-10 renal, 4.65 µM in the test on SK-OV-3 ovarian and 0.236 µM in the test with CAKI-1 renal.

With `CC/C=C\CCC/C=C1/C(=O)C=C[C@@H]1C/C=C\CCCC(=O)OC`, the GI50 in the test with NCI-H522 lung is 1910 nM; with HOP-62 NSCLC it was 3.54 µM; in the test on SK-MEL-2 melanoma, 2600 nM; with NCI-H460 lung, 3900 nM; in the test on KM12 colon, 2460 nM; in the test with SNB-19 CNS, 4.84 µM. Further, the GI50 in the test with A549 NSCLC was 11100 nM; in the test with TK-10 renal, 7.61 µM; in the test with SK-OV-3 ovarian it was 14.9 µM; with CAKI-1 renal it was 4.12 µM. The TGI came out at 3.77 µM in the test on NCI-H522 lung; 11 µM in the test on HOP-62 NSCLC; 7.21 µM in the test on SK-MEL-2 melanoma; 14.2 µM in the test on NCI-H460 lung; 6.39 µM in the test with KM12 colon; 17.7 µM in the test on SNB-19 CNS. Further, the TGI amounted to 28.4 µM in the test with A549 NSCLC, 20.1 µM in the test on TK-10 renal, 29.4 µM in the test on SK-OV-3 ovarian and 13.5 µM in the test on CAKI-1 renal.

Regarding `COC1=CC(=O)c2nc(-c3ccncc3)[nH]c2C1=O`, the GI50 in the test on NCI-H522 lung is > 100000 nM; in the test on HOP-62 NSCLC, > 100 µM; in the test on SK-MEL-2 melanoma, > 100000 nM; in the test with NCI-H460 lung, > 100000 nM; in the test with KM12 colon, > 100000 nM; in the test on SNB-19 CNS, > 100 µM. The GI50 with A549 NSCLC was > 100000 nM; with TK-10 renal, > 100 µM; in the test on SK-OV-3 ovarian, > 100 µM; with CAKI-1 renal, 86.6 µM. Moreover, the TGI in the test with NCI-H522 lung, in the test on HOP-62 NSCLC, in the test with SK-MEL-2 melanoma, in the test with NCI-H460 lung, with KM12 colon and in the test on SNB-19 CNS was > 100 µM throughout. In addition, the TGI in the test on A549 NSCLC, in the test on TK-10 renal, with SK-OV-3 ovarian and with CAKI-1 renal was > 100 µM each time.

As to `Cn1cnc([N+](=O)[O-])c1Sc1nnc(-c2cccnc2)n1C`, the TGI is 15.2 µM in the test on NCI-H522 lung; > 100 µM in the test with HOP-62 NSCLC; 46.1 µM with SK-MEL-2 melanoma; > 100 µM with NCI-H460 lung; > 100 µM in the test on KM12 colon; > 100 µM in the test with SNB-19 CNS. For the same compound, the TGI in the test on A549 NSCLC was > 100 µM; in the test with TK-10 renal, 32.8 µM; in the test on SK-OV-3 ovarian, > 100 µM; with CAKI-1 renal, 42.7 µM.

Regarding `NC(=O)c1cccc2cn(-c3ccc([C@@H]4CCCNC4)cc3)nc12`, the GI50 with NCI-H522 lung is 20400 nM; in the test with HOP-62 NSCLC it was 8.44 µM; with SK-MEL-2 melanoma, 19700 nM; with NCI-H460 lung it was 4000 nM; in the test on KM12 colon it was 15700 nM; in the test on SNB-19 CNS it was 17.1 µM. For the same compound, the GI50 is 13100 nM in the test on A549 NSCLC, 24.1 µM in the test on TK-10 renal, 12.6 µM in the test on SK-OV-3 ovarian and 5.77 µM in the test on CAKI-1 renal. The TGI was 55.6 µM in the test with NCI-H522 lung; 27.8 µM with HOP-62 NSCLC; 39.3 µM in the test with SK-MEL-2 melanoma; 18.7 µM in the test on NCI-H460 lung; 30.6 µM with KM12 colon; > 92.7 µM in the test with SNB-19 CNS. In addition, the TGI in the test with A549 NSCLC was determined as 28 µM; with TK-10 renal, 63.2 µM; in the test with SK-OV-3 ovarian it was 38.2 µM; in the test on CAKI-1 renal it was 20.2 µM.

Turning to `CCOc1ccc(NC(=O)C(=O)CC(=O)c2c[n+](=O)c3cc(C)c(C)cc3n2[O-])cc1`, the TGI with NCI-H522 lung, with HOP-62 NSCLC, in the test with SK-MEL-2 melanoma, in the test on NCI-H460 lung, in the test with KM12 colon and in the test with SNB-19 CNS was > 100 µM throughout. The TGI with A549 NSCLC, in the test with TK-10 renal, with SK-OV-3 ovarian and in the test with CAKI-1 renal was > 100 µM throughout.

Regarding `O=CC[C@H]1C(=O)C[C@@H]2CCC[C@@H]21`, the TGI with NCI-H522 lung, in the test with HOP-62 NSCLC, with SK-MEL-2 melanoma, in the test with NCI-H460 lung, in the test with KM12 colon and in the test with SNB-19 CNS was > 100 µM each time. In addition, the TGI in the test on A549 NSCLC, in the test with TK-10 renal, with SK-OV-3 ovarian and in the test on CAKI-1 renal was > 100 µM throughout.

As for `c1ccc2cc(-c3cc(-c4cc(-c5ccc6ccccc6c5)on4)no3)ccc2c1`, the TGI in the test on NCI-H522 lung, in the test on HOP-62 NSCLC, in the test with SK-MEL-2 melanoma, in the test with NCI-H460 lung, with KM12 colon and with SNB-19 CNS was > 100 µM in each case. Further, the TGI in the test on A549 NSCLC, with TK-10 renal, in the test on SK-OV-3 ovarian and in the test with CAKI-1 renal was > 100 µM each time.

Regarding `O=C(Nc1ccc(Cl)c(Cl)c1)Nc1ccc(Cl)c(Cl)c1`, the GI50 in the test with NCI-H522 lung is 1680 nM and 1250 nM; with HOP-62 NSCLC, 3.02 µM and 5.73 µM; with SK-MEL-2 melanoma, 2150 nM; with NCI-H460 lung it was 2850 nM and 2240 nM; in the test on KM12 colon, 3040 nM and 2520 nM; with SNB-19 CNS, 3.03 µM and 3.7 µM. Moreover, the GI50 with A549 NSCLC is 2980 nM and 2290 nM; in the test on TK-10 renal, 3.3 µM and 2.59 µM; with SK-OV-3 ovarian, 3.39 µM and 3.82 µM; in the test with CAKI-1 renal it was 2.6 µM and 1.94 µM. The TGI in the test on NCI-H522 lung is 5.67 µM and 3.03 µM; in the test with HOP-62 NSCLC it was 11.4 µM and 31.2 µM; with SK-MEL-2 melanoma, 5.49 µM and 4.09 µM; in the test with NCI-H460 lung it was 10.6 µM and 8.59 µM; with KM12 colon it was 11.6 µM and 6.99 µM; in the test on SNB-19 CNS it was 15.4 µM and 23 µM. Moreover, the TGI is 15.6 µM and 10.6 µM in the test on A549 NSCLC; 13.3 µM and 5.86 µM in the test on TK-10 renal; 11.6 µM and 15.9 µM in the test with SK-OV-3 ovarian; 9.96 µM and 4.59 µM in the test on CAKI-1 renal.
